How the values were obtained:
[1] = test system: pressurized cerebral arteries from wt mice; test: Artery diameter measurement, pressurized cerebral arteries from wt C57BL/6 mice; parameters: species or system mouse
Method: Artery Diameter Measurement. Middle cerebral arteries were isolated from adult male Sprague-Dawley rats (=250 g) or 8- to 12-week-old β1-knockout and C57BL/6 control mice. Rats and mice were decapitated using a guillotine and sharp scissors, respectively. These procedures were approved by the Institutional Animal Care and Use Committee from The University of Tennessee Health Science Center, an AMLAC-accredited institution. Pressurization of arteries was performed as described (Liu et al., 2004). Endothelium was removed by passing an air bubble into the vessel lumen for 90 sec. Diameter changes were monitored through an inverted microscope (Nikon Eclipse TS100, Nikon Corp., Tokyo, Japan), recorded on camera (Sanyo VCB-3512T, Sanyo Electric Corp., Japan), and transferred to a computer. Diameter data were acquired and analyzed using IonWizard 4.4 software (IonOptics Corp., Milton, Mass., United States of America). […]
Data Analysis. […] Arterial diameter and electrophysiological data were analyzed with IonWizard 4.4 (IonOptics Corp., Milton, Mass., United States of America) and pCLAMP 8.0 (Molecular Devices, Union City, Calif., United States of America). […]
To determine the impact of LC targeting of BK β1-subunits on organ function, LC action on the arterial diameter of pressurized cerebral arteries was evaluated from β1-knockout vs. wt C57BU6 mice (controls). […]

cbv1+β4 channels = target: T1, cbv1+β4 channels (Rattus norvegicus, UniProt Q62976); test: Patch-clamp of cbv1+β4 channels expressed in Xenopus oocytes; format: cell-based
T1 construct: Full-length cDNA coding for cbv1-subunits was cloned from rat cerebral artery myocytes by PCR; expressed in transfected cells; host or cells: Xenopus laevis oocytes (cRNA co-injection)
Text: cRNA Preparation and Injection into Xenopus Oocytes. Full-length cDNA coding for cbv1-subunits was cloned from rat cerebral artery myocytes by PCR and ligated to the PCR-XL-TOPO cloning vector (Invitrogen Corp., Carlsbad, Calif., United States of America) (Jaggar et al., 2005). cDNA coding for cbv1-subunits was cleaved from the cloning vector by BamHI (Invitrogen Corp., Carlsbad, Calif., United States of America) and XhoI (Promega, Madison, Wis., United States of America) and directly inserted into the pOX vector for expression in Xenopus oocytes. pOX-cbv1 was linearized with NotI (Promega, Madison, Wis., United States of America) and transcribed in vitro using T3 polymerase. […]
Electrophysiology. […] Single-channel and macroscopic currents were recorded from inside-out (I/O) or outside-out (O/O) patches. […] Nominal free Ca^2+ was calculated with MaxChelator Sliders (C. Patton, Stanford University, California, United States of America) and validated experimentally using Ca^2+-selective electrodes (Corning Incorporated Science Products Division, Corning, N.Y., United States of America). […]
Currents were recorded using an EPC8 amplifier (HEKA Electronics, Lambrecht/Pfalz, Germany) at 1 kHz using a low-pass, eight-pole Bessel filter 902LPF (Frequency Devices, Haverhill, Mass., United States of America). […]

T1 sequence (Q62976 1-1148 isoform Q62976-2): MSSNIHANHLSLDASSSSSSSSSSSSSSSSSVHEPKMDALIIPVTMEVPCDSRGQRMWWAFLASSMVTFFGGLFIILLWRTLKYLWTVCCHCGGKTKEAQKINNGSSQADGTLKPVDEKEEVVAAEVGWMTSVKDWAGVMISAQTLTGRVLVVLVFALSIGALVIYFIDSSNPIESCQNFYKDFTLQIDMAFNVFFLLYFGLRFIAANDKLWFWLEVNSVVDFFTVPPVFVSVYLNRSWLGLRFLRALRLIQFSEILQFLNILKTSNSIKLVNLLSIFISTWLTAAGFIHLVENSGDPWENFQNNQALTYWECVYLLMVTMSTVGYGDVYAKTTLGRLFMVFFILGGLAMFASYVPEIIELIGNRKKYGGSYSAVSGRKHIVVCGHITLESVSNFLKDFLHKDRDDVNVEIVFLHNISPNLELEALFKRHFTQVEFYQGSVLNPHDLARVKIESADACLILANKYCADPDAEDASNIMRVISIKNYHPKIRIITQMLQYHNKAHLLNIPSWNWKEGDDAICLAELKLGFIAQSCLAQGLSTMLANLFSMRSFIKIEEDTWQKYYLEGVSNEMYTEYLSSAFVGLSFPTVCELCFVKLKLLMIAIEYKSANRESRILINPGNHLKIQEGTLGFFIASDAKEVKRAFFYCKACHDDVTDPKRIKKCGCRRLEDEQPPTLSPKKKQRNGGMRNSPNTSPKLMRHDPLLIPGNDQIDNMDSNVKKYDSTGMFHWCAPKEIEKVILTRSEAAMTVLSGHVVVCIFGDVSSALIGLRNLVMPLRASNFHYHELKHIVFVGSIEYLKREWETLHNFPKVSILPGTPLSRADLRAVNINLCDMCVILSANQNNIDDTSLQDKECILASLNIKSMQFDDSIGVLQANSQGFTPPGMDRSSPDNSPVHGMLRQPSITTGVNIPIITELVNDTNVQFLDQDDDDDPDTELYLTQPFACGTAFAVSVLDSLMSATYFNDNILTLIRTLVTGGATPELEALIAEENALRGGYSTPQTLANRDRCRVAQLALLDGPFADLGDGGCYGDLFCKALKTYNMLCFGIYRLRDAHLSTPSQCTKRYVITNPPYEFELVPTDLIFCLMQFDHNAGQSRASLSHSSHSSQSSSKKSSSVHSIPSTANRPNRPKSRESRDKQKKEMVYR
T1 sequence (Q86W47 whole entry partner): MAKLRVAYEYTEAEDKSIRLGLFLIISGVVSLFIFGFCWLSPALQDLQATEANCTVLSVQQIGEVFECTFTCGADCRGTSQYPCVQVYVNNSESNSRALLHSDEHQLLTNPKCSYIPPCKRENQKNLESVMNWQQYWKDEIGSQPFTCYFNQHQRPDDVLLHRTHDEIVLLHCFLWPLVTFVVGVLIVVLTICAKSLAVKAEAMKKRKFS

Molecule	Increase in diameter from initial diameter ([1]; 45 μM, wt mouse cerebral arteries)	remaining activity at 150 µM (cbv1+β4 channels; 150 μM, I/O patches, conditions identical to cbv1 and cbv1+β1, read-out: NPo (% of control)) [%]	Decrease from initial diameter (vasoconstriction) ([1]; 55 nM, within 15 min of application, control mice) [%]	Block of channel NPo (cbv1+β4 channels; 55 nM, protracted exposure)
C[C@H](CCC(=O)O)[C@H]1CC[C@H]2[C@@H]3CC[C@@H]4C[C@H](O)CC[C@]4(C)[C@H]3CC[C@]12C [LC, 5β-cholanic acid 3α-ol]	+4.4±0.9%	109 ± 11		
iberiotoxin (QFTDVDCSVSKECWSVCKDLFGVDRGKCMGKKCRCYQ; UniProt P24663 1-37, looked up) [Ibtx, reference compound]			−8.7±4.2	resistance to block

— US20080200439A1, “Methods and compositions for modulating BK channel activity and vasodilation” (University of Tennessee Research Foundation, priority 2006, published 2008)
